Reference: the kinase profiling compilation of Christmann-Franck et al. (2016)
Several values for one entry are separate records, joined by “and”; a condition that tells them apart may be missing. Equal values may be shown once.

Key:
Test in all cases: radiometric filter-binding kinase assay, Kinaseprofiler
ALK (human) = ALK (human) (UniProt Q9UM73); settings: ATP 200 µM
[1] = system: AXL (human), P30530 [Q764R]; settings: ATP 90 µM
[2] = system: BRSK2 (human), Q8IWQ3 [S251I]; settings: ATP 70 µM
CDK3 CCNE1 (human) = CDK3 CCNE1 (human) (UniProt Q00526+P24864); settings: ATP 200 µM
CDK6 CCND3 (human) = CDK6 CCND3 (human) (UniProt P30281+Q00534); settings: ATP 200 µM
Sequence of CDK6 CCND3 (human) (P30281 whole entry, looked up): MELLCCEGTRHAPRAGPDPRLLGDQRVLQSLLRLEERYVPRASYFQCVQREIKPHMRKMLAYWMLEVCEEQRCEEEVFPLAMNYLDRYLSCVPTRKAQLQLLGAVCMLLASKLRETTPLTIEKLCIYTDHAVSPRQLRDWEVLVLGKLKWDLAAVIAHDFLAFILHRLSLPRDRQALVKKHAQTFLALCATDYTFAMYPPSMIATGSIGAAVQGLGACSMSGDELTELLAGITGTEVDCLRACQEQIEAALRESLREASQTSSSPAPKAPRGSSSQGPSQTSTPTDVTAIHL
Sequence of CDK6 CCND3 (human) (Q00534 whole entry, looked up): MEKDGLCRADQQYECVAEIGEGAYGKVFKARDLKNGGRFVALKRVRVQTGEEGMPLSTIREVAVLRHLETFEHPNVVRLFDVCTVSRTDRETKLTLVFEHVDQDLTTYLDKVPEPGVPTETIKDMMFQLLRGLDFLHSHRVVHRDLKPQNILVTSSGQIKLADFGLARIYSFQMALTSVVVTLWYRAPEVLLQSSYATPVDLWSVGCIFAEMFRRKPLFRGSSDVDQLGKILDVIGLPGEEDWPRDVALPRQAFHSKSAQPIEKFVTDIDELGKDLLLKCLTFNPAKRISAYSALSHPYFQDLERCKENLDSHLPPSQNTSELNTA

CLK2 (human) = CLK2 (human) (UniProt P49760); settings: ATP 15 µM
CSF1R (human) = CSF1R (human) (UniProt P07333); settings: ATP 200 µM
[3] = target: CSNK2A1 CSNK2B CSNK2A2 (human) (UniProt P19784+P68400+P67870); settings: ATP 15 µM
CSNK2A2 (human) = CSNK2A2 (human) (UniProt P19784); settings: ATP 10 µM
EPHA3 (human) = EPHA3 (human) (UniProt P29320); settings: ATP 120 µM
EPHA4 (human) = EPHA4 (human) (UniProt P54764); settings: ATP 15 µM
HCK (human) = HCK (human) (UniProt P08631)
Sequence of HCK (human) (P08631 whole entry, looked up): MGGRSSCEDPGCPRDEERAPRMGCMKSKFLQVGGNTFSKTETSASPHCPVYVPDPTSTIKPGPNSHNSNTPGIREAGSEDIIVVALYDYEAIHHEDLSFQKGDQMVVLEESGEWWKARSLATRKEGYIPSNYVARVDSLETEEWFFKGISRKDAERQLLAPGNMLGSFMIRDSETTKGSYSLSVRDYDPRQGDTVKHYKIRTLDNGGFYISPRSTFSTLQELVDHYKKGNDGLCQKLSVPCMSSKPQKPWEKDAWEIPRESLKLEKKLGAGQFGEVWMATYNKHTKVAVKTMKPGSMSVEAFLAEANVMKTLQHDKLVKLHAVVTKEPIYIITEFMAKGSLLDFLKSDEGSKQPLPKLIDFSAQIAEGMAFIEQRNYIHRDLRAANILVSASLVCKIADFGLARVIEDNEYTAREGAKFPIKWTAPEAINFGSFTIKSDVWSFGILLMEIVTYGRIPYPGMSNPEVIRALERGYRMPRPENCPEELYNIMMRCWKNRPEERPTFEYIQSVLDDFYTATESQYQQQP

IGF1R (human) = IGF1R (human) (UniProt P08069)
Sequence of IGF1R (human) (P08069 whole entry, looked up): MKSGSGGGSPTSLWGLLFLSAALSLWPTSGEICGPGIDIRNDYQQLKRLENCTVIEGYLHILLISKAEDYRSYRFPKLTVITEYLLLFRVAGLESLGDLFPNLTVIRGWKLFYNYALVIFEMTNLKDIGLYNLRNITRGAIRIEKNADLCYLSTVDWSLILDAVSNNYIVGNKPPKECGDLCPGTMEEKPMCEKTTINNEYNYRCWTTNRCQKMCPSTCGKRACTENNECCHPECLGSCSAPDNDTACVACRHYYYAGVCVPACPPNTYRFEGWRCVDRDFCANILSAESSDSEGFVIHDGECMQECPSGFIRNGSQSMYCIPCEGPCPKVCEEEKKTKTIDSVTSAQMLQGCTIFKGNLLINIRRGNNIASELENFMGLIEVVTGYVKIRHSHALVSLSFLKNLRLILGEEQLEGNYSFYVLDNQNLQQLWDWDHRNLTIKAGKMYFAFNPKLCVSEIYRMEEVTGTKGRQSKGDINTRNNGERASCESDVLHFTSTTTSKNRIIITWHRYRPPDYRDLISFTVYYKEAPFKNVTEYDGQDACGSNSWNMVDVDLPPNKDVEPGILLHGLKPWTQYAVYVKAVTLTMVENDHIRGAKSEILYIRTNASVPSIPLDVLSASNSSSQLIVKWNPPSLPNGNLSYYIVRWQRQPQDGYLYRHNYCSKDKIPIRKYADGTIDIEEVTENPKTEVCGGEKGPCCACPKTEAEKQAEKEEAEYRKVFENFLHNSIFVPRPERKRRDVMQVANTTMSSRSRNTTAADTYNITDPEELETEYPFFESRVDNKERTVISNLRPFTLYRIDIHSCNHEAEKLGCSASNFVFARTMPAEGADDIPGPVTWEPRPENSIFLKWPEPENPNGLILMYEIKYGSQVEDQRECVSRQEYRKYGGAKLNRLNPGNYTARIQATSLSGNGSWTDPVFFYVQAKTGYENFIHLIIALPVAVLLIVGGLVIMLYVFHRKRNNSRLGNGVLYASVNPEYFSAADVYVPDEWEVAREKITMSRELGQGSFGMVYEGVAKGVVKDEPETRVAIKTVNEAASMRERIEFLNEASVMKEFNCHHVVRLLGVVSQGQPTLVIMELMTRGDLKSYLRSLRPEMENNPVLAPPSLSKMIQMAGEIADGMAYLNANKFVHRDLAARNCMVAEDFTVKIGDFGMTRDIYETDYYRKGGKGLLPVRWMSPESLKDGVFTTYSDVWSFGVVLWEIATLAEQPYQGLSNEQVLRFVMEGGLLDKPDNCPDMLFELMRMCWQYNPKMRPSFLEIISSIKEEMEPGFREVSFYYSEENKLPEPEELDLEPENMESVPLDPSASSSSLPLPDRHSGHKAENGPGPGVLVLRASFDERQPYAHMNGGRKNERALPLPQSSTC

INSR (human) = INSR (human) (UniProt P06213)
Sequence of INSR (human) (P06213 whole entry, looked up): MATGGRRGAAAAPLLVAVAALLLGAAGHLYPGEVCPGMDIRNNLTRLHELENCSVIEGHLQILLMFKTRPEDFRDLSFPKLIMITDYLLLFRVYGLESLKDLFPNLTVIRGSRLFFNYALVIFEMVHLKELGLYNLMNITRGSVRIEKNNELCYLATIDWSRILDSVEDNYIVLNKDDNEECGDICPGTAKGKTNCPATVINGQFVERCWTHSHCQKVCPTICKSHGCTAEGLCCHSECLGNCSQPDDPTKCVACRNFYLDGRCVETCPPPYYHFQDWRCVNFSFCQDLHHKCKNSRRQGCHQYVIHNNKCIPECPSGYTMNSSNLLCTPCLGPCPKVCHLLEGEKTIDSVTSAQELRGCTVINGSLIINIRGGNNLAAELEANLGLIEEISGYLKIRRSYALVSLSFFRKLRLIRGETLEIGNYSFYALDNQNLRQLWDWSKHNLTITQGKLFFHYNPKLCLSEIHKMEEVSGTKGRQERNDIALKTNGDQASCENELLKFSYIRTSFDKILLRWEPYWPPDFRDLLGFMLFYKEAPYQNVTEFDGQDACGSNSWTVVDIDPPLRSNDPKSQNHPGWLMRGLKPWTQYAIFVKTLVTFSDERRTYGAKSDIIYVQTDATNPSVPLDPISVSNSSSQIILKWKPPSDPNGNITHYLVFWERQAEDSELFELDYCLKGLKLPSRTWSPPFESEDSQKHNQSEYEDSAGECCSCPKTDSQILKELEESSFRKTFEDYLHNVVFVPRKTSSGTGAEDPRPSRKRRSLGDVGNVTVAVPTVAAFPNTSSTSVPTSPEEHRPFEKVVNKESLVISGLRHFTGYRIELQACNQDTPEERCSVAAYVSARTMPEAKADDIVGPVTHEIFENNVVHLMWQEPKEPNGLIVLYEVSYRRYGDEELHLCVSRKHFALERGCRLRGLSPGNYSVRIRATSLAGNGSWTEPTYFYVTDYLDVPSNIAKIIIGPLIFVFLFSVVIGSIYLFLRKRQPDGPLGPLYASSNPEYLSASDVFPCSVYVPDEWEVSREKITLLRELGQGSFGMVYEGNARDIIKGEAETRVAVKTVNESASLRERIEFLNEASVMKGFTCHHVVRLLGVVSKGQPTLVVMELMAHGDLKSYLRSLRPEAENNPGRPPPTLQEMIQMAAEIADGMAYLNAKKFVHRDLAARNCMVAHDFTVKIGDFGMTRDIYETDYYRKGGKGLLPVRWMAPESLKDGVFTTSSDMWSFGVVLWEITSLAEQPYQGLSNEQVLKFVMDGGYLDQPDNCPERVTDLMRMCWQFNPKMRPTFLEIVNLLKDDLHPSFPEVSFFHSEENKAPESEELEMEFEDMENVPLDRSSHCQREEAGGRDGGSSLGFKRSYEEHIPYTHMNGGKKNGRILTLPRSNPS

ITK (human) = ITK (human) (UniProt Q08881); settings: ATP 200 µM
LCK (human) = LCK (human) (UniProt P06239); settings: ATP 90 µM
Sequence of LCK (human) (P06239 whole entry, looked up): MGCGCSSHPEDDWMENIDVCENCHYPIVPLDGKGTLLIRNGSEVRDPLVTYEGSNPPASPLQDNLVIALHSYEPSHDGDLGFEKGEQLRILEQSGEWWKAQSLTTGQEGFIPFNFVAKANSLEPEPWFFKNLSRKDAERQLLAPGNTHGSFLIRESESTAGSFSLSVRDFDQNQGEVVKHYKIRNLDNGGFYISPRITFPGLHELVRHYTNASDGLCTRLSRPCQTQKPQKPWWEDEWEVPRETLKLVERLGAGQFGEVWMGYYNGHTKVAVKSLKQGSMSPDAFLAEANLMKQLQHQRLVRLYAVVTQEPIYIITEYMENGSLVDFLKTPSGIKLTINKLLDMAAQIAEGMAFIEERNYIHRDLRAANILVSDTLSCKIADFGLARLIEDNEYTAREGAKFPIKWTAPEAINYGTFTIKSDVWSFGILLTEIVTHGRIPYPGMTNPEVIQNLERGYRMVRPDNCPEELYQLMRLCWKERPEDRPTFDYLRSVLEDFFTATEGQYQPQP

LIMK1 (human) = LIMK1 (human) (UniProt P53667); settings: ATP 15 µM
MAPK1 (human) = MAPK1 (human) (UniProt P28482); settings: ATP 155 µM
MARK2 (human) = MARK2 (human) (UniProt Q7KZI7); settings: ATP 15 µM
MINK1 (human) = MINK1 (human) (UniProt Q8N4C8); settings: ATP 185 µM
MYLK (human) = MYLK (human) (UniProt Q15746); settings: ATP 70 µM
NEK7 (human) = NEK7 (human) (UniProt Q8TDX7); settings: ATP 45 µM
Sequence of NEK7 (human) (Q8TDX7 whole entry, looked up): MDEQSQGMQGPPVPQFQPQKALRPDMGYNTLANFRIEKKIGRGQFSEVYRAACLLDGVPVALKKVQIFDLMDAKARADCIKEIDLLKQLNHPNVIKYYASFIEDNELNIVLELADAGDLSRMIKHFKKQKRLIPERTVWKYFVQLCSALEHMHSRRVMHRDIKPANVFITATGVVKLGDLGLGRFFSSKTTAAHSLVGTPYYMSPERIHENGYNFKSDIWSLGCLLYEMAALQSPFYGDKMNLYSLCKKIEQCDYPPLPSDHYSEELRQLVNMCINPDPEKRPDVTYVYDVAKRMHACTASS

PIM2 (human) = PIM2 (human) (UniProt Q9P1W9); settings: ATP 15 µM
Sequence of PIM2 (human) (Q9P1W9 whole entry, looked up): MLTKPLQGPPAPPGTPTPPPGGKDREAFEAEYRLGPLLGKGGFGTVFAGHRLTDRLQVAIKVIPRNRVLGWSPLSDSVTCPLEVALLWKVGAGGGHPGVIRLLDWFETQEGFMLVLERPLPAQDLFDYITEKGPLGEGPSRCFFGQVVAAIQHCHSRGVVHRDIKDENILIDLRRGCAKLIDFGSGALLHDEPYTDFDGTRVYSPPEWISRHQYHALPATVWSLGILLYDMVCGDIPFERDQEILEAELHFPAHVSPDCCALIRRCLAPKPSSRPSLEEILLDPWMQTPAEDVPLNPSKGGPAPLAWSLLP

PLK3 (human) = PLK3 (human) (UniProt Q9H4B4); settings: ATP 70 µM
PRKX (human) = PRKX (human) (UniProt P51817); settings: ATP 200 µM
ROCK2 (human) = ROCK2 (human) (UniProt O75116); settings: ATP 15 µM
RPS6KA1 KD1 KD2 (human) = RPS6KA1 KD1 KD2 (human) (UniProt Q15418); settings: ATP 45 µM
RPS6KA4 KD1 KD2 (human) = RPS6KA4 KD1 KD2 (human) (UniProt O75676); settings: ATP 45 µM
STK3 (human) = STK3 (human) (UniProt Q13188); settings: ATP 155 µM
STK4 (human) = STK4 (human) (UniProt Q13043); settings: ATP 90 µM
TNK2 (human) = TNK2 (human) (UniProt Q07912); settings: ATP 70 µM

- residual activity (ALK (human); compound 1.0 µM): 52%
- residual activity (ALK (human); compound 10.0 µM): 18%
- residual activity ([1]; compound 1.0 µM): 17%
- residual activity ([1]; compound 10.0 µM): 8%
- residual activity ([2]; compound 1.0 µM): 10%
- residual activity ([2]; compound 10.0 µM): 5%
- residual activity (CDK3 CCNE1 (human); compound 1.0 µM): 5%
- residual activity (CDK3 CCNE1 (human); compound 10.0 µM): 0%
- residual activity (CDK6 CCND3 (human); compound 1.0 µM): 16%
- residual activity (CDK6 CCND3 (human); compound 10.0 µM): 5%
- residual activity (CLK2 (human); compound 1.0 µM): 14%
- residual activity (CLK2 (human); compound 10.0 µM): 4%
- residual activity (CSF1R (human); compound 1.0 µM): 15%
- residual activity (CSF1R (human); compound 10.0 µM): 8%
- residual activity ([3]; compound 1.0 µM): 112%
- residual activity ([3]; compound 10.0 µM): 78%
- residual activity (CSNK2A2 (human); compound 1.0 µM): 102%
- residual activity (CSNK2A2 (human); compound 10.0 µM): 58%
- residual activity (EPHA3 (human); compound 1.0 µM): 58%
- residual activity (EPHA3 (human); compound 10.0 µM): 9%
- residual activity (EPHA4 (human); compound 1.0 µM): 96%
- residual activity (EPHA4 (human); compound 10.0 µM): 83%
- residual activity (HCK (human); compound 1.0 µM, ATP 45 µM): 8%
- residual activity (HCK (human); compound 1.0 µM, ATP 70 µM): 15%
- residual activity (HCK (human); compound 10.0 µM, ATP 45 µM): 1%
- residual activity (HCK (human); compound 10.0 µM, ATP 70 µM): 5%
- residual activity (IGF1R (human); compound 1.0 µM, ATP 45 µM): 40%
- residual activity (IGF1R (human); compound 1.0 µM, ATP 200 µM): 37%
- residual activity (IGF1R (human); compound 10.0 µM, ATP 45 µM): 20%
- residual activity (IGF1R (human); compound 10.0 µM, ATP 200 µM): 26%
- residual activity (INSR (human); compound 1.0 µM, ATP 45 µM): 35%
- residual activity (INSR (human); compound 1.0 µM, ATP 200 µM): 17%
- residual activity (INSR (human); compound 10.0 µM, ATP 45 µM): 19%
- residual activity (INSR (human); compound 10.0 µM, ATP 200 µM): 10%
- residual activity (ITK (human); compound 1.0 µM): 19%
- residual activity (ITK (human); compound 10.0 µM): 1%
- residual activity (LCK (human); compound 1.0 µM): 13% and 22%
- residual activity (LCK (human); compound 10.0 µM): 6% and 17%
- residual activity (LIMK1 (human); compound 1.0 µM): 61%
- residual activity (LIMK1 (human); compound 10.0 µM): 21%
- residual activity (MAPK1 (human); compound 1.0 µM): 104%
- residual activity (MAPK1 (human); compound 10.0 µM): 103%
- residual activity (MARK2 (human); compound 1.0 µM): 48%
- residual activity (MARK2 (human); compound 10.0 µM): 14%
- residual activity (MINK1 (human); compound 1.0 µM): 54%
- residual activity (MINK1 (human); compound 10.0 µM): 10%
- residual activity (MYLK (human); compound 1.0 µM): 46%
- residual activity (MYLK (human); compound 10.0 µM): 13%
- residual activity (NEK7 (human); compound 1.0 µM): 106%
- residual activity (NEK7 (human); compound 10.0 µM): 102%
- residual activity (PIM2 (human); compound 1.0 µM): 68%
- residual activity (PIM2 (human); compound 10.0 µM): 38%
- residual activity (PLK3 (human); compound 1.0 µM): 96%
- residual activity (PLK3 (human); compound 10.0 µM): 91%
- residual activity (PRKX (human); compound 1.0 µM): 48%
- residual activity (PRKX (human); compound 10.0 µM): 33%
- residual activity (ROCK2 (human); compound 1.0 µM): 85%
- residual activity (ROCK2 (human); compound 10.0 µM): 82%
- residual activity (RPS6KA1 KD1 KD2 (human); compound 1.0 µM): 40%
- residual activity (RPS6KA1 KD1 KD2 (human); compound 10.0 µM): 6%
- residual activity (RPS6KA4 KD1 KD2 (human); compound 1.0 µM): 32%
- residual activity (RPS6KA4 KD1 KD2 (human); compound 10.0 µM): 4%
- residual activity (STK3 (human); compound 1.0 µM): 6%
- residual activity (STK3 (human); compound 10.0 µM): 0%
- residual activity (STK4 (human); compound 1.0 µM): 8%
- residual activity (STK4 (human); compound 10.0 µM): 2%
- residual activity (TNK2 (human); compound 1.0 µM): 34%
- residual activity (TNK2 (human); compound 10.0 µM): 4%
SMILES: O=C1Nc2ccccc2/C1=C1\Nc2ccccc2\C1=N/O
